Assay: Drug delivery profile: diffusion of loaded drug from foam-film composite to wetted receptor foam piece, HPLC
Assay type: physicochemical
Conditions: 1x1 cm composite loaded with 100 μL of 261.5 mg/mL solution; on wetted 2x2 cm foam piece; 10 minutes, 37° C.
Protocol: • A foam-film composite made using the process outlined in example 3 was used to evaluate the drug delivery profile of said composite after drug loading. This was done by loading a dry 1×1 cm piece of the composite foam-film with 100 μL of our 261.5 mg/mL solution of dexamethasone disodium phosphate in nanopure water. This piece was then placed on top of a wetted 2×2 cm piece without the flexible film. These two pieces were left in contact for a period of 10 minutes at 37° C. After […] the pieces were separated and the receptor (bottom) piece was placed into a vial. At this point 5 mL of water was added to the vial and the piece was shaken in this new volume of water for 10 minutes. The aqueous layer was then filtered through a 0.45 μm filter and run on a reverse phase HPLC. Using a C18 column and a 12 minute gradient method of water and acetonitrile, it was determined that about 12 mg or about 45% of the loaded DSP diffused to the receptor (bottom) piece.

C[C@@H]1C[C@H]2[C@@H]3CCC4=CC(=O)C=C[C@]4(C)[C@@]3(F)[C@@H](O)C[C@]2(C)[C@@]1(O)C(=O)COP(=O)([O-])[O-].[Na+].[Na+] [DSP, dexamethasone disodium phosphate]
amount of DSP diffused to the receptor (bottom) piece: about 12 mg
percent of the loaded DSP diffused to the receptor (bottom) piece: about 45%

— US9028860B2, “Partially microcellular, selectively hydrophilic composite construct for ocular drug delivery” (Poly-Med, Inc., priority 2010, dated 2015)
